From ChEMBL document CHEMBL1156598 (J Med Chem, 2008)

Key:
Cytochrome P450 3A4 = Cytochrome P450 3A4 (Homo sapiens, UniProt P08684); test: Inhibition of recombinant CYP3A4 expressed in baculovirus-infected insect microsomes; type: ADME, Microsome
[1] = target: T1, Steroid 17-alpha-hydroxylase/17,20 lyase (Homo sapiens, UniProt P05093); test: Inhibition of human recombinant CYP17 expressed in Escherichia coli coexpressing NADPH-P450 reductase
T1 sequence (P05093 whole entry): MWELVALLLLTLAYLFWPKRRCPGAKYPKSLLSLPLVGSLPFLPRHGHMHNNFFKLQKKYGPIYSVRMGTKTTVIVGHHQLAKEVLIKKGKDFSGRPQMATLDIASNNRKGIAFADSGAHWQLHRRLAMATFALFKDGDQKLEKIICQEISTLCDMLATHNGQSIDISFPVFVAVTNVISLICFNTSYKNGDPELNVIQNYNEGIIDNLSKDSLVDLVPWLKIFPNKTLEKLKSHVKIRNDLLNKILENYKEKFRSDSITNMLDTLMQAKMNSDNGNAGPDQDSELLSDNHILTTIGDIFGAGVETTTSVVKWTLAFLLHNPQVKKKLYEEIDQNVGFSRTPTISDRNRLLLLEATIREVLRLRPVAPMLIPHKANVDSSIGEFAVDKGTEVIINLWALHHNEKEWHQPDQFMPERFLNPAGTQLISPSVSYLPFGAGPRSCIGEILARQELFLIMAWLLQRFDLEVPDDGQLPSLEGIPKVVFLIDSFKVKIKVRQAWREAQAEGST

[2] = target: T2, Cytochrome P450 11B1, mitochondrial (Homo sapiens, UniProt P15538); test: Inhibition of human CYP11B1 expressed in hamster V79MZh11B1 cells; type: cell-based
T2 sequence (P15538 whole entry): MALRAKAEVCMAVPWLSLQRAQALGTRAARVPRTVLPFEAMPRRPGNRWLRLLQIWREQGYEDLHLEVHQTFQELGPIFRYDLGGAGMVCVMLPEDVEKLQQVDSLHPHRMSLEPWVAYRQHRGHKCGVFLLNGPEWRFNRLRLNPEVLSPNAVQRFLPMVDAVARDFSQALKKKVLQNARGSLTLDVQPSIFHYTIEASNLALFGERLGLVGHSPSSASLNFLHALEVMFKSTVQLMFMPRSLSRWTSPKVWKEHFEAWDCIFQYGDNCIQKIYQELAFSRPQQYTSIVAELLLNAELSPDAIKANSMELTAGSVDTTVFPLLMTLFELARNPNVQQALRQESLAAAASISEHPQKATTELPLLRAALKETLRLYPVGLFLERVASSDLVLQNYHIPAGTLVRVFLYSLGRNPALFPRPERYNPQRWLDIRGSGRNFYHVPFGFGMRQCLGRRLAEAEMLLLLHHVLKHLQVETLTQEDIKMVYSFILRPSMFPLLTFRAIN

[3] = target: T3, Cytochrome P450 11B2, mitochondrial (Homo sapiens, UniProt P19099); test: Inhibition of human CYP11B2 expressed in hamster V79MZh11B2 cells; type: cell-based
T3 sequence (P19099 whole entry): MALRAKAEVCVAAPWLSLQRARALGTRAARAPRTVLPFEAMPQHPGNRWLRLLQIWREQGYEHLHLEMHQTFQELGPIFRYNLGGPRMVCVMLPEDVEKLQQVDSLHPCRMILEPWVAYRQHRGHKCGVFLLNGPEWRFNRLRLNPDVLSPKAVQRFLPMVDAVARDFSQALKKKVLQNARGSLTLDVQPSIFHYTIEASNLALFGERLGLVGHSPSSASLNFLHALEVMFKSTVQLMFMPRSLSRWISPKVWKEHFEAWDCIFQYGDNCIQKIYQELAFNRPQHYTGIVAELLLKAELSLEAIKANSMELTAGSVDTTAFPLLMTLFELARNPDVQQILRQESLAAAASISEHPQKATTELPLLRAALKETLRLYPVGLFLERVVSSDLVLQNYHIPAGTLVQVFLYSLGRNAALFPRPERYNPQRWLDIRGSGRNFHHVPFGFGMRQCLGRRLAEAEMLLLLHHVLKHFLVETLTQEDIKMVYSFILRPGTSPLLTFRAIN

Sequence of Cytochrome P450 3A4 (P08684 whole entry): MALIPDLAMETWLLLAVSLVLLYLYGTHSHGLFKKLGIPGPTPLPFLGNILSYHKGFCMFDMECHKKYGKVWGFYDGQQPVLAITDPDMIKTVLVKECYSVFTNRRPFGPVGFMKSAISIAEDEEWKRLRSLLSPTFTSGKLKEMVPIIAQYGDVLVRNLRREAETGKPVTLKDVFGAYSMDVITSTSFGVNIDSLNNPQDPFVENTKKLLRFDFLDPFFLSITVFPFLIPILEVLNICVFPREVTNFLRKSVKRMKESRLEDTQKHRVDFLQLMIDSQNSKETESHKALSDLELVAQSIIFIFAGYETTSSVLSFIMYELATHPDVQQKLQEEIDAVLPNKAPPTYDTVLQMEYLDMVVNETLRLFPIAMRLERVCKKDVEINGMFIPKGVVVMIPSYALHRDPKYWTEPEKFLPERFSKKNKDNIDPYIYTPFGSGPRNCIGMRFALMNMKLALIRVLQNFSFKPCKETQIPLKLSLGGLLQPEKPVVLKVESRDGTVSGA

IC50 (Cytochrome P450 3A4)	IC50 [1]	IC50 [2]	IC50 [3]	Structure (SMILES)
2.39 µM	–	–	–	COc1ccc(-c2ccc3c(c2)CC=C3c2ccncc2)cc1
8.76 µM	587 nM	1160 nM	840 nM	OC1(c2ccncc2)CCCc2cc(-c3ccc(F)cc3)ccc21 (stereo unspecified)
0.159 µM	–	–	–	Fc1ccc(-c2ccc3c(c2)CC=C3c2ccncc2)cc1
3.39 µM	64 nM	1370 nM	587 nM	Oc1ccc(-c2ccc3c(c2)CCCC3c2ccncc2)cc1F (stereo unspecified)
0.632 µM	–	–	–	Oc1ccc(-c2ccc3c(c2)CCCC3c2ccncc2)cc1O (stereo unspecified)
3.29 µM	–	–	–	COc1ccc(-c2ccc3c(c2)CCC3(O)c2ccncc2)cc1 (stereo unspecified)
6.95 µM	2350 nM	–	–	Fc1ccc(-c2ccc3c(c2)CC=C3c2cccnc2)cc1
3.23 µM	–	–	–	OC1(c2ccncc2)CCc2cc(-c3ccc(F)cc3)ccc21 (stereo unspecified)
2.17 µM	163 nM	> 5000 nM	518 nM	Fc1ccc(-c2ccc3c(c2)CCCC3c2ccncc2)cc1 (stereo unspecified)
> 20 µM	–	–	–	OC1(c2cccnc2)CCc2cc(-c3ccc(F)cc3)ccc21 (stereo unspecified)
3.36 µM	> 10000 nM	291 nM	436 nM	COc1ccc(-c2ccc3c(c2)CCC3(O)c2ccncc2)cc1F (stereo unspecified)
1.09 µM	233 nM	1080 nM	543 nM	Fc1ccc(-c2ccc3c(c2)CCC3c2ccncc2)cc1 (stereo unspecified)
–	–	–	1750 nM	C[C@]12CC[C@H](O)CC1=CC[C@@H]1[C@@H]2CC[C@]2(C)C(c3cccnc3)=CC[C@@H]12 [ABIRATERONE]
3.64 µM	> 5000 nM	> 20000 nM	311 nM	Fc1ccc(-c2ccc3c(c2)CCC=C3c2ccncc2)cc1F
4.2 µM	–	–	–	Fc1ccc(-c2ccc3c(c2)CCC=C3c2ccncc2)cc1
13.8 µM	–	–	–	OC1(c2ccncc2)CCCc2cc(-c3ccc(F)c(F)c3)ccc21 (stereo unspecified)
15.2 µM	> 5000 nM	686 nM	945 nM	COc1ccc(-c2ccc3c(c2)CCCC3(O)c2ccncc2)cc1F (stereo unspecified)
1.7 µM	> 20000 nM	–	–	Fc1ccc(-c2ccc3c(c2)CCC3c2cccnc2)cc1 (stereo unspecified)
0.357 µM	–	–	–	Oc1ccc(-c2ccc3c(c2)CCC=C3c2ccncc2)cc1O
2.11 µM	188 nM	2750 nM	991 nM	Oc1ccc(-c2ccc3c(c2)CCC=C3c2ccncc2)cc1F
